pIC50: −log10 of the molar value.

This passage reports IC50 results from patent publication US11168078B2, “Sulfoximine, sulfonimidamide, sulfondiimine and diimidosulfonamide compounds as inhibitors of indoleamine 2,3-dioxygenase” (Shanghai Fochon Pharmaceutical Co., Ltd., priority 2016, dated 2021).

In the assay the target is T1, IDO (Homo sapiens, UniProt P14902).
T1 construct: endogenous in cells; host or cells: HeLa cells stimulated with recombinant human interferon-gamma
The experiment in a line: IDO Cell-Based NEK Green Assay (NFK Green, N-formyl kynurenine level). The conditions noted are these: Hela cells, 1 mM L-Tryptophan, 100 ng/mL recombinant human interferon-gamma, 2 days, NFK Green fluorescence. As for the experimental part: IDO Cell-Based NEK Green Assay
Materials: RPMI 1640 (phenol red free) (Invitrogen Cat. No. 11835030), Fetal Bovine Serum (Invitrogen Cat. No. 10099141), Penicillin-Streptomycin (Invitrogen Gibco Cat. No. 15140-122), Cellular assay kit (NTRC, Cat. No. NTRC-GSCell-1K), DMSO (Sigma, Cat. No. D2650), 384 wells_compound plate (Greiner, Cat. No. 781280), 384 wells_assay plate (Greiner, Cat. No. 781091)
The concentrations of test compounds varied from 5 μM to 0.76 nM with 3-fold dilution, 10 points, in duplicates.
Hela cells were seeded at 8,000 cells per well with RPMI/phenol red free media containing 10% FBS in a 384-well tissue culture plate. Mixture of compounds and 1 mM L-Tryptophan were added to cells; and then the recombinant human interferon-gamma was added at the final concentration of 100 ng/mL to activate IDO signaling. The cells were incubated for 2 days in 37° C. incubator with 5% CO2. After that, NFK Green was used to detect the N-formyl kynurenine level by following the commercial kit instruction. The fluorescent signal was measured by Envision plate Reader (excitation, 400/25; emission, 510/20). Curves are fit by XLFIT5 as % inhibition vs. log [compound concentration] using a 4 parameters logistic model 205.
Select compounds prepared as described above were assayed according to the biological procedures described herein.

T1 sequence (P14902 whole entry): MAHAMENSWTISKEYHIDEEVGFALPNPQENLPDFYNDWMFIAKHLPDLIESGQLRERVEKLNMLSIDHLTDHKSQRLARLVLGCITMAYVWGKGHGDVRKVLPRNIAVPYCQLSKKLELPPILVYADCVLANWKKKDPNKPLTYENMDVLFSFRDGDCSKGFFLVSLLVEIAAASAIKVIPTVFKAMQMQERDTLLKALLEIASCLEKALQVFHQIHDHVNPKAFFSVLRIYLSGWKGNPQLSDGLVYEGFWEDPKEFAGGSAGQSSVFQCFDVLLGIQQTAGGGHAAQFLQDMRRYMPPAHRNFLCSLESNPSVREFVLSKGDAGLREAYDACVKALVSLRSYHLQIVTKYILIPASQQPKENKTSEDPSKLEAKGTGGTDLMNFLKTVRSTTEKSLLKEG

`CN=S(=O)(CCCNc1nonc1/C(=N/O)Nc1ccc(F)c(Br)c1)NC` (stereo not drawn) [Example 17, (Z)—N-(3-bromo-4-fluorophenyl)-4-((3-(N,N′-dimethylsulfamidimidoyl)propyl)amino)-N′-hydroxy-1,2,5-oxadiazole-3-carboximidamide]: the negative-log IC50 (pIC50) is 7.97.
For `CN=S(=O)(CCCNc1nonc1/C(=N/O)Nc1ccc(F)c(Cl)c1)NC` (stereo not drawn) [Example 18, (Z)—N-(3-chloro-4-fluorophenyl)-4-((3-(N,N′-dimethylsulfamidimidoyl)propyl)amino)-N′-hydroxy-1,2,5-oxadiazole-3-carboximidamide] the value was 7.63.
As for `CS(=N)(=N)CCNc1nonc1/C(=N/O)Nc1ccc(F)c(Br)c1` [Example 20, (Z)—N-(3-bromo-4-fluorophenyl)-4-({2-[diimino(methyl)-λ^6-sulfanyl]ethyl}amino)-N′-hydroxy-1,2,5-oxadiazole-3-carboximidamide], the figure is 7.91.
As for `C#Cc1cc(N/C(=N\O)c2nonc2NCCNS(=N)(=O)CC)ccc1F` (stereo not drawn) [Example 21, (Z)-4-((2-(ethylsulfonoamidimidamido)ethyl)amino)-N-(3-ethynyl-4-fluorophenyl)-N′-hydroxy-1,2,5-oxadiazole-3-carboximidamide], the figure is 7.79; as for `CN=S(C)(=O)NCCNc1nonc1/C(=N/O)Nc1ccc(F)c(Cl)c1` (stereo not drawn) [Example 22, (Z)-N-(3-chloro-4-fluorophenyl)-N′-hydroxy-4-((2-(N′-methylmethylsulfonoamidimidamido)ethyl)amino)-1,2,5-oxadiazole-3-carboximidamide], 7.56.
As for `CCS(=O)(=NC)NCCNc1nonc1/C(=N/O)Nc1ccc(F)c(Cl)c1` (stereo not drawn) [Example 23, (Z)-N-(3-chloro-4-fluorophenyl)-N′-hydroxy-4-((2-(N′-methylethylsulfonoamidimidamido)ethyl)amino)-1,2,5-oxadiazole-3-carboximidamide], the pIC50 was 7.48.
As for `CCS(=N)(=O)NCCCNc1nonc1/C(=N/O)Nc1ccc(F)c(Br)c1` (stereo not drawn) [Example 24, (Z)-N-(3-bromo-4-fluorophenyl)-4-[(3-ethanesulfonoimidamidopropyl)amino]-N′-hydroxy-1,2,5-oxadiazole-3-carboximidamide], the figure is 8.09.
As for `CCS(=N)(=O)NCCNc1nonc1/C(=N/O)Nc1ccc(F)c(Cl)c1` (stereo not drawn) [Example 25, (Z)-N-(3-chloro-4-fluorophenyl)-4-((2-(ethylsulfonoamidimidamido)ethyl)amino)-N′-hydroxy-1,2,5-oxadiazole-3-carboximidamide], the figure is 7.76.
For `CS(=N)(=O)NCCCNc1nonc1/C(=N/O)Nc1ccc(F)c(Cl)c1` (stereo not drawn) [Example 26, (Z)-N-(3-chloro-4-fluorophenyl)-N′-hydroxy-4-[(3-methanesulfonoimidamidopropyl)amino]-1,2,5-oxadiazole-3-carboximidamide], the pIC50 was 7.85.
Take `CCS(=N)(=O)NCCCNc1nonc1/C(=N/O)Nc1ccc(F)c(Cl)c1` (stereo not drawn) [Example 27, (Z)-N-(3-chloro-4-fluorophenyl)-4-[(3-ethanesulfonoimidamidopropyl)amino]-N′-hydroxy-1,2,5-oxadiazole-3-carboximidamide]: the negative logarithm of the IC50 (pIC50) is 7.78.
As to `C#Cc1cc(N/C(=N\O)c2nonc2NCCN=S(C)(C)=O)ccc1F` [Example 29, (Z)-4-((2-((dimethyl(oxo)-λ^6-sulfanylidene)amino)ethyl)amino)-N-(3-ethynyl-4-fluoro-phenyl)-N′-hydroxy-1,2,5-oxadiazole-3-carboximidamide], the negative-log IC50 (pIC50) was 7.58.
In the case of `CS(C)(=O)=NCCCNc1nonc1/C(=N/O)Nc1ccc(F)c(Br)c1` [Example 30, (Z)-N-(3-bromo-4-fluorophenyl)-4-((3-((dimethyl(oxo)-λ^6-sulfanylidene)amino)propyl)amino)-N′-hydroxy-1,2,5-oxadiazole-3-carboximidamide], the negative-log IC50 (pIC50) was 7.20.
On to `CS(C)(=O)=NCCCNc1nonc1/C(=N/O)Nc1ccc(F)c(Cl)c1` [Example 31, (Z)-N-(3-chloro-4-fluorophenyl)-4-((3-((dimethyl(oxo)-λ^6-sulfanylidene)amino)propyl)amino)-N′-hydroxy-1,2,5-oxadiazole-3-carboximidamide], for which the negative logarithm of the IC50 (pIC50) is 6.95.
For `O=S1(=NCCCNc2nonc2/C(=N/O)Nc2ccc(F)c(Cl)c2)CCC1` [Example 32, (Z)-N-(3-chloro-4-fluorophenyl)-N′-hydroxy-4-((3-((1-oxido-1λ^6-thietan-1-ylidene)amino)propyl)amino)-1,2,5-oxadiazole-3-carboximidamide] the value was 7.19; for `CCS(=O)(=NC)NCCNc1nonc1/C(=N/O)Nc1ccc(F)c(Br)c1` (stereo not drawn) [Example 33, (Z)-N-(3-bromo-4-fluorophenyl)-N′-hydroxy-4-((2-(N′-methylethylsulfonoamidimidamido)ethyl)amino)-1,2,5-oxadiazole-3-carboximidamide], 7.62; for `CCS(=N)(=N)CCNc1nonc1/C(=N/O)Nc1ccc(F)c(Br)c1` [Example 34, (Z)-N-(3-bromo-4-fluorophenyl)-4-{[2-(ethyldiimino-λ^6-sulfanyl)ethyl]amino}-N′-hydroxy-1,2,5-oxadiazole-3-carboximidamide], 8.01.
For `CS(=N)(=N)CCNc1nonc1/C(=N/O)Nc1ccc(F)c(Cl)c1` [Example 35, (Z)-N-(3-chloro-4-fluorophenyl)-4-({2-[diimino(methyl)-λ^6-sulfanyl]ethyl}amino)-N′-hydroxy-1,2,5-oxadiazole-3-carboximidamide] the value was 7.47.
For `CS(=N)(=N)CCCNc1nonc1/C(=N/O)Nc1ccc(F)c(Br)c1` [Example 36, (Z)-N-(3-bromo-4-fluorophenyl)-4-({3-[diimino(methyl)-λ^6-sulfanyl]propyl}amino)-N′-hydroxy-1,2,5-oxadiazole-3-carboximidamide] the value was 7.33; for `CCS(=N)(=N)CCCNc1nonc1/C(=N/O)Nc1ccc(F)c(Br)c1` [Example 37, (Z)-N-(3-bromo-4-fluorophenyl)-4-{[3-(ethyldiimino-λ^6-sulfanyl)propyl]amino}-N′-hydroxy-1,2,5-oxadiazole-3-carboximidamide], 7.69.
In the case of `CC(C)S(=N)(=N)CCNc1nonc1/C(=N/O)Nc1ccc(F)c(Br)c1` [Example 38, (Z)-N-(3-bromo-4-fluorophenyl)-4-({2-[diimino(propan-2-yl)-λ^6-sulfanyl]ethyl}amino)-N′-hydroxy-1,2,5-oxadiazole-3-carboximidamide], the negative-log IC50 (pIC50) is 7.88.
With `N=S(=N)(CCNc1nonc1/C(=N/O)Nc1ccc(F)c(Br)c1)C1CC1` [Example 39, (Z)-N-(3-bromo-4-fluorophenyl)-4-{[2-(cyclopropyldiimino-λ^6-sulfanyl)ethyl]amino}-N′-hydroxy-1,2,5-oxadiazole-3-carboximidamide], the pIC50 is 7.28.
For `N=S(=N)(CCO)CCNc1nonc1/C(=N/O)Nc1ccc(F)c(Br)c1` [Example 40, (Z)-N-(3-bromo-4-fluorophenyl)-N′-hydroxy-4-({2-[(2-hydroxyethyl)diimino-λ^6-sulfanyl]ethyl}amino)-1,2,5-oxadiazole-3-carboximidamide] the value was 7.41; for `COCCS(=N)(=N)CCNc1nonc1/C(=N/O)Nc1ccc(F)c(Br)c1` [Example 41, (Z)-N-(3-bromo-4-fluorophenyl)-4-({2-[diimino(2-methoxyethyl)-λ^6-sulfanyl]ethyl}amino)-N′-hydroxy-1,2,5-oxadiazole-3-carboximidamide], 7.68; for `CCS(=N)(=N)CCNc1nonc1/C(=N/O)Nc1ccc(F)c(C#N)c1` [Example 42, (Z)-N-(3-cyano-4-fluorophenyl)-4-{[2-(ethyldiimino-λ^6-sulfanyl)ethyl]amino}-N′-hydroxy-1,2,5-oxadiazole-3-carboximidamide], 6.71.
For the molecule `C#Cc1cc(N/C(=N\O)c2nonc2NCCS(C)(=N)=N)ccc1F` [Example 43, (Z)-4-({2-[diimino(methyl)-λ^6-sulfanyl]ethyl}amino)-N-(3-ethynyl-4-fluorophenyl)-N′-hydroxy-1,2,5-oxadiazole-3-carboximidamide], the pIC50 is 6.62.
On to `C#Cc1cc(N/C(=N\O)c2nonc2NCCS(=N)(=N)CC)ccc1F` [Example 44, (Z)-4-{[2-(ethyldiimino-λ^6-sulfanyl)ethyl]amino}-N-(3-ethynyl-4-fluorophenyl)-N′-hydroxy-1,2,5-oxadiazole-3-carboximidamide], for which the pIC50 was 7.13.
As for “(Z)—N-(3-ethynyl-4-fluorophenyl)-N′-hydroxy-4-((2-(methylsulfonoamidimidamido)ethyl)amino)-1,2,5-oxadiazole-3-carboximidamide [Example 19]”, the figure is 7.88.
